Source: patent US5866681A, “Thrombin receptor antagonists” (priority 1995, dated 1999)
*1 amine or outer side, *2 acyl side, *3 side chain or, on linkers, in order; H or OH if unused. Where a SMILES comes first, the peptide text is derived from it. [ ]: non-standard residue; d: D form. The star is where a group is joined. X25 = CN(Cc1ccc(-c2ccccc2)cc1)[C@@H](Cc1ccccc1)C(=O)*; X23 = O=C([C@H](Cc1ccccc1)N(CCC1CCCC1)[*:1])[*:2]; Isoquinolin(3-yl)carbonyl = O=C(c1cc2ccccc2cn1)*; X24 = CC(C)CCN([C@@H](Cc1ccccc1)C(=O)[*:2])[*:1]; X22 = CCCCCN([C@@H](CCc1ccccc1)C(=O)[*:2])[*:1]; X3 = CCCCCCCN([C@@H](Cc1ccccc1)C(=O)[*:2])[*:1]; X16 = CCCCCN([C@@H](Cc1ccccc1)C(=O)[*:2])[*:1]; X17 = CSCCCN([C@@H](Cc1ccccc1)C(=O)[*:2])[*:1]; X15 = CCCCN([C@@H](Cc1ccccc1)C(=O)[*:2])[*:1]; 2Naphthylsulfonyl = O=S(=O)(c1ccc2ccccc2c1)*; Quinoline3carbonyl = O=C(c1cnc2ccccc2c1)*; X6 = CCCCCN(CCCCC)[C@@H](Cc1ccccc1)C(=O)*; Benzoyl(2-Ph) = O=C(c1ccccc1-c1ccccc1)*; X19 = CC(C)(C)CN1Cc2ccccc2C[C@H]1C(=O)*; Butanoyl(2-OPh) = CCC(Oc1ccccc1)C(=O)*; X20 = CCCCC(Oc1cccc2ccccc12)C(=O)*; X4 = CCCCCN1Cc2ccccc2C[C@H]1C(=O)*; NMeR = CN[C@@H](CCCNC(=N)N)C(=O)O; hArg = N=C(N)NCCCC[C@H](N)C(=O)O; Cha = N[C@@H](CC1CCCCC1)C(=O)O; dCha = N[C@H](CC1CCCCC1)C(=O)O; X2 = O=C(Cc1c[nH]c2ccccc12)*

Target: T1, thrombin receptor (Homo sapiens, UniProt P25116)
T1 construct: washed human platelets are prepared from blood drawn from healthy volunteers; endogenous in cells; host or cells: washed human platelets from healthy volunteers
T1 sequence (P25116 22-425): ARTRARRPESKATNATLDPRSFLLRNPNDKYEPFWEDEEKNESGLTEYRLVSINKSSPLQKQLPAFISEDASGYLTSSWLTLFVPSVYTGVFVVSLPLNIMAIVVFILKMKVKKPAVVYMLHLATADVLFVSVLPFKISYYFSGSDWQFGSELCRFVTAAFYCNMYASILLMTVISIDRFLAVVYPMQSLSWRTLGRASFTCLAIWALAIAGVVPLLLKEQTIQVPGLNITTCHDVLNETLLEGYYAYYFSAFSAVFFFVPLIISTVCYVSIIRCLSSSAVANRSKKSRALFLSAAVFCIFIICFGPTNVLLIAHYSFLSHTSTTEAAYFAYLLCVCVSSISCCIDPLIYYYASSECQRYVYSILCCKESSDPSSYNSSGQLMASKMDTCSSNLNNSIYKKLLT
Experiment: Platelet aggregation assay for thrombin receptor antagonist activity (washed human platelets stimulated with α-thrombin)
Type: cell-based
Conditions: not given
Protocol: The compounds of the present invention may be tested for thrombin receptor antagonist activity by using a platelet aggregation assay. In this assay, washed human platelets are prepared from blood drawn from healthy volunteers who have not ingested any medications for two weeks prior to donation. Blood is drawn into 12.5% (vol/vol) ACD (85 mM sodium citrate, 111 mM dextrose, 71 mM citric acid) containing 0.1% (vol/vol) PGI2 (0.05 mg/mL PGI2, 100 mM Tris, pH 12). Platelet-rich plasma was obtained by centrifugation at 160×g for 20 minutes. The platelets were pelleted by centrifugation at 760×g for 10 minutes and resuspended in CGS (13 mM trisodium citrate, 120 mM sodium chloride, 30 mM dextrose, pH 7.0) containing 0.1% (vol/vol) PGI2, repelleted and resuspended in Tyrodes buffer (10 mM Hepes, 12 mM sodium bicarbonate, 138 mM sodium chloride, 5.5 mM glucose, 2.9 mM potassium chloride, 1.0 mM calcium chloride, pH 7.4) and stored at 37° C. Approximately 0.4-10 nM α-thrombin is used to stimulate platelet aggregation in control reactions which are monitored by aggregometry using an aggregometer. Candidate antagonists are added to the platelet mixture followed by the addition of thrombin in order to assess their ability to prevent thrombin-mediated aggregation.
Platelet aggregation can also be measured with washed platelets in 96-well microtiter plates as described in Fratantoni, J. C. et al., Am. J. Clin. Pathol. 94:613-617 (1990). The ability of the antagonists to block the thrombin receptor was assessed in this assay using various concentrations of antagonists. The concentration at which 50% inhibition of platelet aggregation is achieved is defined as IC50.

SMILES	IC50 [µM]
N=C(N)NCCC[C@H](NC(=O)[C@H](CC1CCCCC1)NC(=O)[C@H](CC1CCCCC1)NC(=O)[C@H](Cc1ccccc1)NCCC1CCCC1)C(=O)N[C@@H](CCCCN)C(=O)N1CCC[C@H]1C(=O)N[C@@H](CC(N)=O)C(=O)N[C@@H](CC(=O)O)C(=O)N[C@@H](CCCCN)C(N)=O [Compound 6] (H-[X23][Cha][Cha]RKPNDK-NH2)	10
N=C(N)NCCC[C@H](NC(=O)[C@H](CC1CCCCC1)NC(=O)[C@H](CC1CCCCC1)NC(=O)c1cc2ccccc2cn1)C(=O)N[C@@H](CCCCN)C(N)=O [Compound 32] ({Isoquinolin(3-yl)carbonyl}-[Cha][Cha]RK-NH2)	15

Same assay, conditions: washed human platelets, thrombin-mediated aggregation; read-out: IC50 (concentration at which 50% inhibition of platelet aggregation is achieved)

SMILES	IC50 [µM]
CN(Cc1ccc(-c2ccccc2)cc1)[C@@H](Cc1ccccc1)C(=O)N[C@@H](CC1CCCCC1)C(=O)N[C@@H](CC1CCCCC1)C(=O)N[C@@H](CCCNC(=N)N)C(=O)N[C@@H](CCCCN)C(N)=O [Compound 18] (X25-[Cha][Cha]RK-NH2)	5
CCCCCCCN[C@@H](Cc1ccccc1)C(=O)N[C@@H](CC1CCCCC1)C(=O)N[C@@H](CC1CCCCC1)C(=O)N[C@@H](CCCNC(=N)N)C(=O)N[C@@H](CCCCN)C(=O)N1CCC[C@H]1C(=O)N[C@@H](CC(N)=O)C(=O)N[C@@H](CC(=O)O)C(=O)N[C@@H](CCCCN)C(N)=O [Compound 3] (H-[X3][Cha][Cha]RKPNDK-NH2)	10
N=C(N)NCCC[C@H](NC(=O)[C@H](CC1CCCCC1)NC(=O)[C@H](CC1CCCCC1)NC(=O)c1ccccc1-c1ccccc1)C(=O)N[C@@H](CCCCN)C(N)=O [Compound 25] ({Benzoyl(2-Ph)}-[Cha][Cha]RK-NH2)	25
CCC(Oc1ccccc1)C(=O)N[C@@H](CC1CCCCC1)C(=O)N[C@@H](CC1CCCCC1)C(=O)N[C@@H](CCCCNC(=N)N)C(=O)N[C@@H](CCCCN)C(N)=O (stereo partly shown) [Compound 47] ({Butanoyl(2-OPh)}-[Cha][Cha][hArg]K-NH2)	2.5
CC(C)CCN[C@@H](Cc1ccccc1)C(=O)N[C@@H](CC1CCCCC1)C(=O)N[C@@H](CC1CCCCC1)C(=O)N[C@@H](CCCNC(=N)N)C(=O)N[C@@H](CCCCN)C(=O)N1CCC[C@H]1C(=O)N[C@@H](CC(N)=O)C(=O)N[C@@H](CC(=O)O)C(=O)N[C@@H](CCCCN)C(N)=O [Compound 1] (H-[X24][Cha][Cha]RKPNDK-NH2)	5
CSCCCN[C@@H](Cc1ccccc1)C(=O)N[C@@H](CC1CCCCC1)C(=O)N[C@@H](CC1CCCCC1)C(=O)N[C@@H](CCCNC(=N)N)C(=O)N[C@@H](CCCCN)C(=O)N1CCC[C@H]1C(=O)N[C@@H](CC(N)=O)C(=O)N[C@@H](CC(=O)O)C(=O)N[C@@H](CCCCN)C(N)=O [Compound 2] (H-[X17][Cha][Cha]RKPNDK-NH2)	10
CCCCCN1Cc2ccccc2C[C@H]1C(=O)N[C@@H](CC1CCCCC1)C(=O)N[C@@H](CC1CCCCC1)C(=O)N[C@@H](CCCNC(=N)N)C(=O)N[C@@H](CCCCN)C(N)=O [Compound 11, (N-n-pentyl-Tic)-Cha-Cha-Arg-Lys-NH2] (X4-[Cha][Cha]RK-NH2)	2.5
CC(C)(C)CN1Cc2ccccc2C[C@H]1C(=O)N[C@@H](CC1CCCCC1)C(=O)N[C@@H](CC1CCCCC1)C(=O)N[C@@H](CCCNC(=N)N)C(=O)N[C@@H](CCCCN)C(N)=O [Compound 13] (X19-[Cha][Cha]RK-NH2)	5
CCCCN[C@@H](Cc1ccccc1)C(=O)N[C@@H](CC1CCCCC1)C(=O)N[C@@H](CC1CCCCC1)C(=O)N[C@@H](CCCNC(=N)N)C(=O)N[C@@H](CCCCN)C(=O)N1CCC[C@H]1C(=O)N[C@@H](CC(N)=O)C(=O)N[C@@H](CC(=O)O)C(=O)N[C@@H](CCCCN)C(N)=O [Compound 4] (H-[X15][Cha][Cha]RKPNDK-NH2)	5
CCC(Oc1ccccc1)C(=O)N[C@@H](CC1CCCCC1)C(=O)N[C@@H](CC1CCCCC1)C(=O)N(C)[C@@H](CCCNC(=N)N)C(=O)N[C@@H](CCCCN)C(N)=O (stereo partly shown) [Compound 53] ({Butanoyl(2-OPh)}-[Cha][Cha][NMeR]K-NH2)	2
CCCCCN(CCCCC)[C@@H](Cc1ccccc1)C(=O)N[C@@H](CC1CCCCC1)C(=O)N[C@H](CC1CCCCC1)C(=O)N[C@@H](CCCNC(=N)N)C(=O)N[C@@H](CCCCN)C(N)=O [Compound 42] (X6-[Cha][dCha]RK-NH2)	2
N=C(N)NCCC[C@H](NC(=O)[C@H](CC1CCCCC1)NC(=O)[C@H](CC1CCCCC1)NS(=O)(=O)c1ccc2ccccc2c1)C(=O)N[C@@H](CCCCN)C(N)=O [Compound 38] (2Naphthylsulfonyl-[Cha][Cha]RK-NH2)	10
CCC(Oc1ccccc1)C(=O)N[C@@H](CC1CCCCC1)C(=O)N[C@@H](CC1CCCCC1)C(=O)N[C@@H](CCCNC(=N)N)C(=O)N[C@@H](CCCNC(=N)N)C(N)=O (stereo partly shown) [Compound 51] ({Butanoyl(2-OPh)}-[Cha][Cha]RR-NH2)	2.5
CCC(Oc1ccccc1)C(=O)N[C@@H](Cc1ccccc1)C(=O)N[C@@H](CC1CCCCC1)C(=O)N[C@@H](CCCCNC(=N)N)C(=O)N[C@@H](CCCNC(=N)N)C(N)=O (stereo partly shown) [Compound 57] ({Butanoyl(2-OPh)}-F[Cha][hArg]R-NH2)	2
CCC(Oc1ccccc1)C(=O)N[C@@H](CC1CCCCC1)C(=O)N[C@@H](CC1CCCCC1)C(=O)N[C@@H](CCCNC(=N)N)C(=O)N[C@@H](CCCCN)C(N)=O (stereo partly drawn) [Compound 10, 2-Phenoxybutyryl-Cha-Cha-Arg-Lys-NH2] ({Butanoyl(2-OPh)}-[Cha][Cha]RK-NH2)	10
N=C(N)NCCC[C@H](NC(=O)[C@H](CC1CCCCC1)NC(=O)[C@H](CC1CCCCC1)NC(=O)c1cnc2ccccc2c1)C(=O)N[C@@H](CCCCN)C(N)=O [Compound 29] (Quinoline3carbonyl-[Cha][Cha]RK-NH2)	> 200
CCCCCN(CCCCC)[C@@H](Cc1ccccc1)C(=O)N[C@@H](CC1CCCCC1)C(=O)N[C@@H](CC1CCCCC1)C(=O)N[C@@H](CCCNC(=N)N)C(=O)N[C@@H](CCCCN)C(N)=O [Compound 21, (N,N-di-n-pentyl-Phe)-Cha-Cha-Arg-Lys-NH2] (X6-[Cha][Cha]RK-NH2)	10
CCC(Oc1ccccc1)C(=O)N[C@@H](Cc1ccccc1)C(=O)N[C@@H](CC1CCCCC1)C(=O)N[C@@H](CCCNC(=N)N)C(=O)N[C@@H](CCCCN)C(N)=O (stereo partly shown) [Compound 46] ({Butanoyl(2-OPh)}-F[Cha]RK-NH2)	15
N=C(N)NCCC[C@H](NC(=O)[C@H](CC1CCCCC1)NC(=O)[C@H](CC1CCCCC1)NC(=O)Cc1c[nH]c2ccccc12)C(=O)N[C@@H](CCCCN)C(N)=O [Compound 30] (X2-[Cha][Cha]RK-NH2)	20
CCCCC(Oc1cccc2ccccc12)C(=O)N[C@@H](CC1CCCCC1)C(=O)N[C@@H](CC1CCCCC1)C(=O)N[C@@H](CCCNC(=N)N)C(=O)N[C@@H](CCCCN)C(N)=O (stereo partly shown) [Compound 27] (X20-[Cha][Cha]RK-NH2)	5
CC(COc1ccccc1)N[C@@H](CC1CCCCC1)C(=O)N[C@@H](CC1CCCCC1)C(=O)N[C@@H](CCCNC(=N)N)C(=O)N[C@@H](CCCCN)C(N)=O (stereo partly shown) [Compound 36]	7.5
CCC(Oc1ccccc1)C(=O)N[C@@H](CC1CCCCC1)C(=O)N[C@@H](CC1CCCCC1)C(=O)N(C)[C@@H](CCCNC(=N)N)C(=O)N[C@@H](CCCNC(=N)N)C(N)=O (stereo partly shown) [Compound 54] ({Butanoyl(2-OPh)}-[Cha][Cha][NMeR]R-NH2)	0.5
CCCCCN[C@@H](CCc1ccccc1)C(=O)N[C@@H](CC1CCCCC1)C(=O)N[C@@H](CC1CCCCC1)C(=O)N[C@@H](CCCNC(=N)N)C(=O)N[C@@H](CCCCN)C(N)=O [Compound 9] (H-[X22][Cha][Cha]RK-NH2)	15
CCC(Oc1ccccc1)C(=O)N[C@@H](CC1CCCCC1)C(=O)N[C@@H](CC1CCCCC1)C(=O)N[C@@H](CCCCNC(=N)N)C(=O)N[C@@H](CCCNC(=N)N)C(N)=O (stereo partly shown) [Compound 55] ({Butanoyl(2-OPh)}-[Cha][Cha][hArg]R-NH2)	1
CCCCCN[C@@H](Cc1ccccc1)C(=O)N[C@@H](CC1CCCCC1)C(=O)N[C@@H](CC1CCCCC1)C(=O)N[C@@H](CCCNC(=N)N)C(=O)N[C@@H](CCCCN)C(=O)N1CCC[C@H]1C(=O)N[C@@H](CC(N)=O)C(=O)N[C@@H](CC(=O)O)C(=O)N[C@@H](CCCCN)C(N)=O [Compound 5] (H-[X16][Cha][Cha]RKPNDK-NH2)	2.5
CCCCCC/C(=C\c1ccccc1)CN[C@@H](CC1CCCCC1)C(=O)N[C@@H](CC1CCCCC1)C(=O)N[C@@H](CCCNC(=N)N)C(=O)N[C@@H](CCCCN)C(N)=O [Compound 26]	7.5
